Test results as given in patent US5753221A, “Transformed erythrocytes, process for preparing the same, and their use in pharmaceutical compositions” (priority 1991, dated 1998).
Read-outs that look alike come from different tables or passages of the source.

What was measured:
[1] = cited from earlier work
[2] = molecular target: cytidine deaminase (Homo sapiens, UniProt P32320); conditions: cited from earlier work
[3] = tested on: HIV; conditions: cited from earlier work
[4] = In vivo half life of loaded erythrocytes in mice (125I-ubiquitin radioactivity)
Protocol: Similar experiments were also performed on mice erythrocytes to do in vivo studies. The results are similar to those reported above. The in vivo half life of these erythrocytes was evaluated by following the radioactivity of ^125 I-ubiquitin-loaded erythrocytes coencapsulated with ddCTP in erythrocytes treated or not with ZnCl2 and BS^3.
In this case, the radioactivity associated with the erythrocytes was determined on blood collected from the tail vein of animals receiving the erythrocytes described above.

[5] = tested on: human erythrocytes; conditions: cited from earlier work
[6] = tested on: human erythrocytes; experiment: Stability of ddCTP in intact ddCTP-loaded erythrocytes; type: in vitro ADME
Protocol: (§1) In this case the stability of ddCTP (1 mM) in loaded erythrocytes was evaluated at 37° C. by incubation of ddCTP-loaded erythrocytes at 6% hematocrit in 0.9% (w/v) NaCl containing 10 mM glucose, 5 mM sodium, potassium phosphate buffer, pH 7.4. At different time intervals (0 to 5 h) aliquots (200 μl) of the incubation suspensions were extracted with 100 μl 10% (w/v) HClO4, centrifuged, neutralized and submitted to HPLC analyses as above. In some experiments ^3 H-ddCTP (4 Ci/mmol, Moravek Biochemicals, Inc. Brea Ca) was used.
(§2) In this case fractions of 0.3 ml were collected at the exit of the wavelength detector of the HPLC system by using an LKB fraction collector and counted in a Packard liquid scintillation Counter. Both methods (HPLC detection and liquid scintillation counting) provided similar results (i.e. ddCTP was stable in erythrocytes until ATP was maintained at physiological concentrations of 1.2 mM, while ddCTP dephosphorylation starts when ATP fall down to values lower than 1 mM.

[7] = as above; type: in vitro ADME, human; conditions: human, erythrocytes; incubation time over 3 h, 37° C; read-out: decay of ddCTP
Protocol: as §1, §2

[8] = tested on: human monocytes/macrophages; experiment: Delivery of 3H-ddCTP to monocytes/macrophages by phagocytosis; type: cell-based; conditions: 3H-ddCTP-loaded erythrocytes
Protocol: Human monocytes/macrophages were prepared from heparinized blood by Lymphoprep (Nyegaard & Co Oslo, Norway) centrifugation. Mononuclear cells collected at the interface between the Lymphoprep and plasma were washed in 5 mM sodium potassium phosphate buffer, pH 7.4, containing 0.9% (w/v) NaCl, 5 mM glucose and finally resuspended in RPMI 1640 medium containing 10% (v/v) fetal bovine serum (FCS). 8.10^6 cells were placed into 100 mm Corning dish and incubated overnight at 37° C. and 5% CO2. Adherent monocytes/macrophages cells were separated from the lymphocytes by three washing steps in RPMI/FCS medium, counted by Tripan blue exclusion dye and incubated with ddCTP-loaded erythrocytes treated or not with ZnCl2 plus BS^3 or with unloaded erythrocytes overnight at 37° C. at a ratio of 100 erythrocytes per monocytes/macrophages. During the loading procedure ^125 I-ubiquitin (2.1 mCi/mg) was also encapsulated as an internal marker to follow phagocytosis both into ddCTP-loaded on ddCTP-unloaded erythrocytes. (Ubiquitin is a polypeptide of 8 KDa that can be easily encapsulated and is retained by the erythrocytes).
After monocytes/macrophages-erythrocytes incubation the dishes were extensively washed with RPMI 1640 medium to remove all erythrocytes not phagocytosed, followed by a 0.9% ammonium chloride washing step to remove adherent erythrocytes that were not yet phagocytosed. […]

[9] = tested on: human erythrocytes lysates; experiment: ddCTP stability in human erythrocytes lysates (HPLC); type: in vitro ADME; conditions: for time stable in erythrocyte lysate: in the presence or absence of ATP
Protocol: Human erythrocytes lysates were prepared by adding 2 volumes of 3 mM sodium potassium phosphate buffer, pH 7.4, containing 3 mM mercaptoethanol, 0.5 mM EDTA to each volume of washed and packed erythrocytes. After 30 min at 4° C., the lysates were centrifuged for 1 h at 12,000×g to remove the cell membranes. The supernatants were then dialyzed overnight against 160 volumes of 0.9% (w/v) NaCl containing 10 mM Tris-HCl, pH 7.5, 10 mM MgCl2 and 0.02 mM EDTA. The dialyzed lysates were then used for the studies of ddCTP stability. Briefly, 900 μl of lysate containing ddCTP 50 μM, 100 μM, 300 μM, 1.2 mM or 1.5 mM in a final volume of 1.2 ml were incubated at 37° C. At time intervals of 0, 15, 30 and 60 min, 250 μl of the incubation mixtures were removed and extracted with 125 μl of 10% (v/v) HClO4. The perchloric acid extract was then neutralized with 23 μl of a 3M solution of K2 CO3, diluted with 60 μl of 0.1M sodium potassium phosphate buffer pH 6.5, centrifuged 10 min at 10,000 rpm in an Eppendorf microcentrifuge and 100 μl of extract analyzed by HPLC as described below. […] Integration of peak areas was obtained by means of an HP 3390A electronic integrator (Hewlett-Packard, Avondale, Pa., U.S.A.). A 5 μm Supelcosil LC-18 column (250 mm×4.6 mm I.D., Supelco, Bellefonte, Pa., U.S.A.) protected by a guard column (Pelliguard LC-18, 20 mm×4.6 mm I.D., pellicular packing material, 40 μm particles) was used throughout these studies. […] All buffer solutions, as well as standards and sample solutions, were filtered through a 0.22 μm membrane filter (Millipore).
The elution conditions used to obtain the chromatograms were: 2 min 100% buffer A, 4 min up to 10% buffer B, 4 min up to 40% buffer B, 3 min up to 100% buffer B and the same conditions are maintained for 7 min. The gradient was then returned to 100% buffer A in 2 min and the initial conditions restored in 8 min. The flow-rate was 1.3 ml/min and the detection wavelength was 272 nm. The analyses were performed at room temperature. Quantitative measurements were carried out by injection of standard solutions of known concentration.

[10] = tested on: ddCTP dephosphorylation; experiment: ATP inhibition of ddCTP dephosphorylation in erythrocyte lysate; type: biochemical, human; conditions: 2 mM ATP, 100 μM ddCTP, 37° C
Protocol: Human erythrocytes lysates were prepared by adding 2 volumes of 3 mM sodium potassium phosphate buffer, pH 7.4, containing 3 mM mercaptoethanol, 0.5 mM EDTA to each volume of washed and packed erythrocytes. After 30 min at 4° C., the lysates were centrifuged for 1 h at 12,000×g to remove the cell membranes. The supernatants were then dialyzed overnight against 160 volumes of 0.9% (w/v) NaCl containing 10 mM Tris-HCl, pH 7.5, 10 mM MgCl2 and 0.02 mM EDTA. The dialyzed lysates were then used for the studies of ddCTP stability. Briefly, 900 μl of lysate containing ddCTP 50 μM, 100 μM, 300 μM, 1.2 mM or 1.5 mM in a final volume of 1.2 ml were incubated at 37° C. At time intervals of 0, 15, 30 and 60 min, 250 μl of the incubation mixtures were removed and extracted with 125 μl of 10% (v/v) HClO4. The perchloric acid extract was then neutralized with 23 μl of a 3M solution of K2 CO3, diluted with 60 μl of 0.1M sodium potassium phosphate buffer pH 6.5, centrifuged 10 min at 10,000 rpm in an Eppendorf microcentrifuge and 100 μl of extract analyzed by HPLC as described below. […] Integration of peak areas was obtained by means of an HP 3390A electronic integrator (Hewlett-Packard, Avondale, Pa., U.S.A.). […]

Sequence of cytidine deaminase (P32320 whole entry): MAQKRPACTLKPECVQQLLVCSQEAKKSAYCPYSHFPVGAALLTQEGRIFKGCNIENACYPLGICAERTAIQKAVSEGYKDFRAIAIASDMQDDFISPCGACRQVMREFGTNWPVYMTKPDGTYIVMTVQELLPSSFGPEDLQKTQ

Cc1cn([C@H]2C[C@H](N=[N+]=[N-])[C@@H](CO)O2)c(=O)[nH]c1=O [AZT, 3'-azido-3'-deoxythymidine]
short plasma half-life (approximate) ([1]; human, in vivo): approximately 1 h

Nc1ccn([C@H]2CC[C@@H](CO)O2)c(=O)n1 [ddCyd, 2',3'-Dideoxycytidine]
concentration ([1]; 0.09 mg/Kg, intravenous, 4 h, read-out: plasma level at four hours after intravenous administration): < 100 nM
bioavailability ([1]; human, in vivo): good bioavailability
short plasma half-life (approximate) ([1]; human, in vivo): approximately 1 h
concentration ([1]; patients receiving 0.09 mg/Kg, read-out: plasma level during the infusion): > 500 nM
resistance to cytidine deaminase [2]: resistant to cytidine deaminase
concentration that completely protects target helper/inducer T cells against HIV infections ([3]; in vitro): ≥ 0.5 µM
concentration that can suppress the virus ([3]; low multiplicity of infection): ≥ 10 nM

[Cl-].[Cl-].[Zn+2] [ZnCl2]
lowest ZnCl2 concentration able to modify red cell survival [4]: 0.1 mM

Nc1ccn([C@H]2CC[C@@H](COP(=O)(O)O)O2)c(=O)n1 [ddCMP, 2',3'-dideoxycytidine-5'-phosphate]
fate of ddCMP encapsulated in human erythrocytes [5]: dephosphorylated by endogenous pyrimidine nucleotidases and subsequently released by the cells as ddCyd

Nc1ccn([C@H]2CC[C@@H](COP(=O)(O)OP(=O)(O)OP(=O)(O)O)O2)c(=O)n1 [ddCTP, 2',3'-dideoxycytidine-5'-triphosphate]
ATP concentration below which ddCTP dephosphorylation starts [6]: lower than 1 mM
stability of ddCTP in intact cells ([6]; 37° C, 1 mM ddCTP, 6% hematocrit): stable even at 37 °C
metabolised at 3 h, 1000 µM [7]: 20%
concentration of ddCTP in monocytes/macrophages after phagocytosis [8]: 2.88 µM
pH of maximum dephosphorylation rate [9]: 8.4
Vmax of dephosphorylation of ddCTP to ddCDP ([9]; 37° C): 3±0.5 nmol/min/g HB
Km ([9]; 37° C, read-out: Km of dephosphorylation of ddCTP to ddCDP): 140 µM
dephosphorylation rate relative to maximum rate ([9]; pH 7.2 (physiological value)): 50%

Nc1ncnc2c1ncn2[C@H]1CC[C@@H](COP(=O)(O)OP(=O)(O)OP(=O)(O)O)O1 [ddATP, 2',3'-dideoxyadenosine-5'-triphosphate]
time stable in erythrocyte lysate ([9]; 37° C): at least 2 h

O=c1[nH]cnc2c1ncn2[C@H]1CC[C@@H](COP(=O)(O)OP(=O)(O)OP(=O)(O)O)O1 [ddITP, 2',3'-dideoxyinosine-5'-triphosphate]
time stable in erythrocyte lysate ([9]; 37° C): at least 2 h

Nc1nc2c(ncn2[C@H]2CC[C@@H](COP(=O)(O)OP(=O)(O)OP(=O)(O)O)O2)c(=O)[nH]1 [ddGTP, 2',3'-dideoxyguanosine-5'-triphosphate]
time stable in erythrocyte lysate ([9]; 37° C): at least 2 h

Nc1ncnc2c1ncn2[C@@H]1O[C@H](COP(=O)(O)OP(=O)(O)OP(=O)(O)O)[C@@H](O)[C@H]1O [ATP]
effect on ddCTP dephosphorylation [10]: completely abolishes
